In patent US20260132165A1, “MODIFIED NUCLEOSIDE ANALOGUE AND USE THEREOF, AND NUCLEOSIDE ANALOGUE-CONTAINING DOUBLE-STRANDED OLIGONUCLEOTIDE AND USE THEREOF” (RIGERNA THERAPEUTICS (BEIJING) CO., LTD., priority 2023, published 2026):
Several values for one entry are separate records, joined by “and”; a condition that tells them apart may be missing. Identical values can stand only once.

Legend:
[1] = tested on: target gene Superoxide Dismutase 1 (SOD1); test: Test Example 1: inhibitory activity of NM031 conjugated siRNA on SOD1 by lateral ventricular administration to mice (real-time PCR, ΔΔCt); type: in vivo, C57BL/6j mice; conditions: lateral ventricle, 200 μg per mouse, D5
Description: In the context of the present disclosure, unless otherwise stated, Real-time PCR detection data in in vivo activity experiments involved in the present disclosure are all used for relative quantitative calculation of gene mRNA of interest in various test groups by a ΔΔCt method, and a calculation method is summarized as follows:
Taking the control group as reference, expression level of the gene mRNA of interest in the test group is normalized, and remaining expression level of the gene mRNA of interest in the […] is defined as 100%.
6-8 Week-old C57BL/6j mice were randomly grouped by body weight, 5 per group, 2 groups in total, i.e., PBS group (dosed with siRNA-free PBS solution) and RZ899008 group (dosed with siRNA RZ899008 (the sense strand with the NM031 conjugation at Position 4) prepared in Example 1). Mice in each group were anaesthetized by intraperitoneal injection of 5% chloral hydrate, and were immobilized with the cerebral stereotaxic apparatus after being anaesthetized. Head skin was cut, positioning coordinates of right lateral ventricle were found with the stereotaxic apparatus and position was marked on surface of skull, wherein the positioning coordinates of the lateral ventricle were as follows: in coordinate axes with Bregma point as an origin, ML (mediolateral, left and right of middle raphe, i.e., X-axis) value=1.2 mm, and AP (anteroposterior, bregma anterior and posterior, i.e., Y-axis) value=−0.58 mm, and DV (dorsoventral, down skull (cerebral dura mater) plane, i.e., Z-axis) value=2.2 mm. A dental electric drill was used to drill in the skull above a position of interest, and then sucked drug was injected into the lateral ventricle by a micro-dosing pump. An administration dose to each mouse in the RZ899008 group was 200 μg (dose being measured as siRNA, concentration of siRNA being 20 μg/μL, PBS buffer as a solvent), and a total injection volume was […]. PBS group was administered with the same volume of siRNA-free PBS solution. […] The day of administration was recorded as first day (D1), and the mice were sacrificed on the fifth day (D5). […]

SOD1 = test: Test Example 2: inhibitory activity of NM031 conjugated siRNA on SOD1 by intrathecal administration to mice; type: in vivo, C57BL/6j mice; conditions: D9
Protocol: 6-8 Week-old C57BL/6j mice were randomly grouped into 4 groups by body weight. PBS group was dosed with siRNA-free PBS solution, RX899001 group was dosed with siRNA compound RX899001 without vector conjugation, RZ899001 group was dosed with siRNA RZ899001 (the sense strand with the Uhd conjugation at Position 4) prepared in Example 1, and RZ899008 was dosed with siRNA RZ899008 (the sense strand with the NM031 conjugation at Position 4) prepared in Example 1. Mices in each group were anesthetized with isoflurane. After anesthetization, lumbar region thereof was sprayed wet with 75% disinfecting alcohol. 10 μL (concentration […]) of siRNA drug containing PBS solvent was sucked with an insulin injection needle, the mouse lumbar region was pinched with the left-hand index finger and thumb, patella crest was propped against, and needle was held by the right hand. The needle was bent by forceps in advance, wherein the needle was first bent in the middle by 80° to 90°, then a front half part of the needle was bent in half, and the whole needle was bent in an are shape of about 60° to 90°. Mouse abdominal region was padded with an article with a thickness of about 2 cm. The needle was inserted from a joint of lumbar spines L5 and L6 of mice, and when inserting the needle, the hand was slightly inclined forwards to insert the needle. […] After completion of the injection, the needle was slowly withdrawn at uniform velocity. The administration dose to each mouse in RX899001 group, RZ899001 group and RZ899008 group was 800 μg, a total volume injected was 10 μL, and the PBS group was administered with the same volume of siRNA-free PBS solution. After the animals woke up, the animals were returned back to the animal feeding room and further fed. The day of administration was recorded as first day (D1), and the mice were sacrificed on ninth day (D9). Lumbar spine, thoracic spine and cerebellum were respectively taken and stored in the RNAlater.
RNA extraction: an appropriate amount of lumbar spine, thoracic spine and cerebellum samples were respectively taken out from the RNAlater, and smashed for 60 s in Tissuelyser type II full-automatic tissue homogenizer, and total RNAs of various tissue samples were extracted using the full-automatic nucleic acid extraction instrument and the nucleic acid extraction kit from Zhejiang Hanwei Science and Technology Co. Ltd. according to methods described in instructions. Reverse transcription reaction: 1 μg of the extracted total RNAs of various tissue samples were respectively taken, and configured into 20 μL of reverse transcription system according to a method described in kit instructions by using a reverse transcription kit (Reverse Transcription System, A3500) from Promega Corporation and selecting Oligo (dT)15 reverse transcription primers, and the reverse transcription reaction was completed. After the reaction was ended, 80 μL of RNase-Free water was added into the reverse transcription system to provide cDNA solution for Real-time PCR detection.
Real-time PCR detection: 20 μL of Real-time PCR reaction system per PCR detection well was configured according to a method described in kit instructions using SYBR™ Select Master Mix (Catalog number: 4472908) reagent from ABI company. Each detection system contained 5 μL of cDNA template obtained from the above reverse transcription reaction, 10 μL of SYBR™ Select Master Mix, 0.5 μL of 10 μM upstream primers, 0.5 μL of 10 μM downstream primers (see TABLE 5 for primer information), and 4 μL of RNase-Free H2O. The configured reaction system was subjected to Real-time PCR amplification on ABI StepOnePlus PCR instrument by a three-step method, wherein an amplification procedure was pre-denaturation at 95° C. for 10 min, then denaturation at 95° C. for 30 s, annealing at 60° C. for 30 s, and extension at 72° C. for 30 s; and processes of denaturation, annealing, and extension were repeated for 40 cycles. […]

Substance: RZ899008: siRNA, the sense strand with the NM031 conjugation at Position 4; SEQ ID NO: 3 / 2 (sense UUUNAAUCCUCACUCUAAA; antisense UUUAGAGUGAGGAUUAAAAUG; NM031 conjugate at sense position 4; modified_base 1..2 OTHER; 2'-methoxy and 5'-thiophosphate modified nucleotides; modified_base 3 OTHER; 2'-methoxy modified nucleotide; modified_base 4 OTHER; n is the synthetic nucleotide analog NM031 as described in the disclosure (e.g., NM031-1 ((1-[(2R,3R,4S,5R)-5-{[bis(4-methoxyphenyl)(phenyl)methoxy]methyl}-3,4-dihydroxyoxolan-2-yl]-3H-pyrimidin-2,4-dione)).; modified_base 5..6 OTHER; 2'-meth; modified_base 1 OTHER; 2'-methoxy and 5'-thiophosphate modified nucleotide; modified_base 2 OTHER; 2'-fluoro and 5'-thiophosphate modified nucleotide; …)
- Hippocampus Mean value of inhibition rate % ([1]; administration-side hippocampus): 82.94%
- Parietal cortex Mean value of inhibition rate % ([1]; administration-side parietal cortex): 73.57%
- Cerebellum Mean value of inhibition rate % ([1]; cerebellum): 40.08%
- Cerebellum Mean value of inhibition rate % (SOD1; cerebellum, intrathecal, 800 μg per mouse): 67.72%
- activity compared with control molecule RZ899001 and molecule RX899001 without vector conjugation (SOD1; lumbar spine, thoracic spine and cerebellum, intrathecal 800 μg per mouse): superior
- Lumbar spine Mean value of inhibition rate % (SOD1; lumbar spine, intrathecal, 800 μg per mouse): 80.09% and 78.99%
- Thoracic spine Mean value of inhibition rate % (SOD1; thoracic spine, intrathecal, 800 μg per mouse): 78.99% and 80.09%
